In US20230301883A1, “MOISTURIZING ANTIBACTERIAL COMPOSITION” (priority 2020, published 2023):

Assays:
[1] = system: melanin content of cells; assay: Melanin content assay; format: cell-based; settings: for % Inhibition in Melanin Content: 72 hours incubation
Method: In this Example, cells were grown for 24 hours and treated with bioactives and incubated for 72 hours. Post treatment, the cells were lysed and absorbance measured at 405 nm. The lysate was transferred to a fresh 384-well clear flat bottom plate and an […] was measured at 405 nm using a FlexStation 3 reader. (% reduction in melanin content was measured by taking the mean absorbance value of the control−the mean absorbance value of the treated cells/the mean absorbance value of the control)*100

[2] = Solubility of sensory oil in 75/25 EtOH/Water blend; format: physicochemical
Source text: (§1) A sensory oil can be used in the antibacterial composition to assist in leaving the user with a non-tacky feeling to the skin after application of the composition. The antibacterial composition comprises a sensory oil in an amount of 0.01 to 10% by weight, preferably 0.5 to 5% by weight including all values and ranges subsumed therein. The sensory oil can comprise a soluble sensory oil. Sensory oils desirable for use in the antibacterial composition disclosed herein must meet the following criteria: the sensory oil must be liquid, the sensory oil must be soluble in at least a 75/25 or higher ratio of EtOH/Water which is to be reflective of solubility in the final composition to give a clear final antibacterial composition, and the sensory oil must have no solvency for water.
(§2) The examples are not meant to limit the materials that can be used but merely to illustrate oil type and level selected based on three criteria. […] Finally, the preferred oil must itself not have solvency for water such that during application and on drying as the ethanol and water evaporate, the water is also allowed to quickly evaporate leaving behind only the oil and any skin benefit actives/moisturizers if present.

[3] = Water solubility in sensory oil (solvency of the oil for water); format: physicochemical; settings: yes/no
Source text: as §1, §2

[4] = system: cells; assay: Wound healing (scratch closure) assay; format: cell-based; settings: 24 hours after scratch
Method: In this example, various combinations of benefit agents were tested for resilience wound healing and barrier repair. For wound healing assessments, cells were grown to 80% confluency and treated with bioactives for 24 to 36 hours. Post treatment, a scratch was created on the cell and closure of the wound was monitored after 24 hours of incubation. Closure of the scratch area was calculated as a % closure of the wound. Microscopic images were captured at a magnification of 4× and the open wound area measurements were analyzed using the software CellSens. Wound closure in percentage=(mean of the readings of the open wound area at (t=24)−mean of the readings of the open wound area at (t=0)/mean of the readings at (t=0))*100.

Compound | Solubility in 75/25 EtOH/Water [2] | Water solubility in sensory oil [3] | also measured
CCCCCCc1ccc(O)cc1O [4-Hexyl resorcinol, reference compound] |  |  | inhibition at 10 µM ([1]; 10 micromolar, read-out: % inhibition in melanin content (benchmark)): ~33%
CCCCC(CC)COC(=O)CC(O)C(=O)OCC(CC)CCCC (centres unmarked) [Diethyl hexyl malate] | >30% | No | 
CCCCC(CC)COC(=O)CCCCCCCCC(=O)OCC(CC)CCCC (centres unmarked) [Diethyl hexyl sebacate] | <10% | No | 
CCCCC(CC)COC(=O)CCCCC(=O)OCC(CC)CCCC (centres unmarked) [Diethylhexyl adipate] | <10% | No | 
CC(C)OC(=O)CCCCC(=O)OC(C)C [Disopropyl adipate] | >30% | No | 
CCCCCCCCCCCCOC(=O)C(C)O (centres unmarked) [Lauryl lactate] | >30% | No | 
NC(=O)c1cccnc1 [Vitamin B3, niacinamide] |  |  | % Closure in Scratch Area ([4]; 0.2%): 30%; % Inhibition in Melanin Content ([1]; 0.2%): 7.47%
Dicapryl maleate | <10% | No | 
Glyceryl Monoleate | >30% | yes | 
Isocetyl alcohol | <10% | No | 
PPG-2 Isoceteth-20 Acetate | >30% | no | 
PPG-2-Isoceteth-2 | >30% | Yes | 
Sodium Hyaluronate |  |  | % Closure in Scratch Area ([4]; 0.001%): 51%; % Inhibition in Melanin Content ([1]; 0.001%): 9.09%
tocopherol [Vitamin E] |  |  | % Closure in Scratch Area ([4]; 0.001%): 32%; % Closure in Scratch Area ([4]; 0.05%): 48%; % Inhibition in Melanin Content ([1]; 0.001%): 3.56%; % Inhibition in Melanin Content ([1]; 0.05%): 15.62%
